In publication PMC10786919, “Design-rules for stapled peptides with in vivo activity and their application to Mdm2/X antagonists” (Nature Communications, 2024):
pEC50: −log10 of the molar value. ≈ marks a conversion by molar mass, not a printed value. Positions of bridges follow the written chain, without caps; N, C: chain ends. Non-standard residues stand in square brackets, D forms with d. Residues, ends and D or L forms follow the SMILES beside them. Lys(N3) = [N-]=[N+]=NCCCC[C@H](N)C(=O)O; hArg = N=C(N)NCCCC[C@H](N)C(=O)O; R8 = C=CCCCCCC[C@@](C)(N)C(=O)O; Cba = N[C@@H](CC1CCC1)C(=O)O; S5 = C=CCCC[C@](C)(N)C(=O)O; βAla = NCCC(=O)O; Sar = CNCC(=O)O

Assays:
[1] = physchem
[2] = Experimental LogD (partition coefficient); settings: not stated, Partition Coeff LogD
[3] = test system: HCT116 cells; test: Lactate dehydrogenase (LDH) release assay; type: cell-based
Summary of the method: (§1)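 Geometric means of at least three independent biological runs are given for LDH release measured in HCT116 cells stably expressing a p53-driven β-lactamase reporter. Plating density was 8000 cells/well; DMSO in wells was 0.5%.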

[4] = Lactate dehydrogenase (LDH) release assay; type: cell-based; settings: LDH: Cytotoxicity assay: EC50
Summary of the method: as §1

[5] = Solubility assay (kinetic solubility, PBS pH 7); type: physicochemical; settings: pH 7, aqueous buffer, kinetic from dmso stock, pH 7, PBS; read-out: Solubility
Summary of the method: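 Next, measure peak areas of sample and standard. Finally, multiply their ratio by the standard concentration to obtain solubility (µM).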

[6] = in vitro; settings: Nanoclick permeability assay EC50
Summary of the method: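 Azido-peptide permeability was read as loss of NanoBRET signal (donor 450 nm, acceptor 610 nm) after adding NanoBret618-azide at 10 μM final.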

Structure (SMILES)	EPSA [1] [A^2]	logD [2]	LDH: Cytotoxicity assay: % Effect [3] [%]	pEC50 [4]	solubility kinetic [5] [µM]	cell entry EC50 [6] [µM]
CC(=O)N[C@@H](CCCCN=[N+]=[N-])C(=O)NCCC(=O)N[C@@H](CC(C)C)C(=O)N[C@H](C(=O)N[C@@H](Cc1ccccc1)C(=O)N[C@]1(C)CCCCCCC=CCCC[C@@](C)(C(=O)N[C@@H](CO)C(=O)N[C@@H](C)C(=O)N[C@@H](C)C(N)=O)NC(=O)[C@H](CC2CCC2)NC(=O)[C@H](CCC(N)=O)NC(=O)[C@H](C)NC(=O)[C@H](Cc2c[nH]c3cc(F)ccc23)NC(=O)[C@H](Cc2ccc(O)cc2)NC(=O)[C@H](CCC(=O)O)NC1=O)[C@@H](C)O [MP-004]	201	2.9	10.1	4.62	110 (≈ 219 µg/mL)	7.44
CC(C)C[C@H](NC(=O)CCNC(=O)[C@@H](N)CCCCN=[N+]=[N-])C(=O)N[C@H](C(=O)N[C@@H](Cc1ccccc1)C(=O)N[C@]1(C)CCCCCCC=CCCC[C@@](C)(C(N)=O)NC(=O)[C@H](CC2CCC2)NC(=O)[C@H](CCC(N)=O)NC(=O)[C@H](C)NC(=O)[C@H](Cc2c[nH]c3ccccc23)NC(=O)[C@H](Cc2ccc(O)cc2)NC(=O)[C@H](CCC(=O)O)NC1=O)[C@@H](C)O [MP-327] (H-[Lys(N3)][βAla]LTF[R8]EYWAQ[Cba][S5]-NH2; staple 6-13)	228	2.83	39.84	< 4.30	–	> 10
CC(=O)N(C)CC(=O)N[C@@H](CCCCN=[N+]=[N-])C(=O)NCCC(=O)N[C@@H](C)C(=O)N[C@H](C(=O)N[C@@H](Cc1ccccc1)C(=O)N[C@]1(C)CCCCCCC=CCCC[C@@](C)(C(=O)N[C@@H](C)C(=O)N[C@@H](C)C(=O)N[C@@H](C)C(N)=O)NC(=O)[C@H](CC2CCC2)NC(=O)[C@H](C)NC(=O)[C@H](C)NC(=O)[C@H](Cc2c[nH]c3ccccc23)NC(=O)[C@H](Cc2ccc(O)cc2)NC(=O)[C@H](C)NC1=O)[C@@H](C)O [MP-895] (Ac-[Sar][Lys(N3)][βAla]ATF[R8]AYWAA[Cba][S5]AAA-NH2; staple 7-14)	184	3.46	–	< 4.30	2 (≈ 3.74 µg/mL)	0.197
CC(=O)N[C@@H](CCCCN=[N+]=[N-])C(=O)NCCC(=O)N[C@@H](CC(C)C)C(=O)N[C@@H](CCCCNC(=N)N)C(=O)N[C@@H](Cc1ccccc1)C(=O)N[C@]1(C)CCCCCCC=CCCC[C@@](C)(C(=O)N[C@@H](CO)C(=O)N[C@@H](C)C(=O)N[C@@H](C)C(N)=O)NC(=O)[C@H](CC2CCC2)NC(=O)[C@H](CCC(N)=O)NC(=O)[C@H](C)NC(=O)[C@H](Cc2c[nH]c3ccccc23)NC(=O)[C@H](Cc2ccc(O)cc2)NC(=O)[C@H](CCC(=O)O)NC1=O [MP-6897] (Ac-[Lys(N3)][βAla]L[hArg]F[R8]EYWAQ[Cba][S5]SAA-NH2; staple 6-13)	210	2.94	–	< 4.30	9 (≈ 18.4 µg/mL)	1.51
CC(=O)N[C@@H](CCCCN=[N+]=[N-])C(=O)NCCC(=O)N[C@H](C)C(=O)N[C@H](C(=O)N[C@@H](Cc1ccccc1)C(=O)N[C@]1(C)CCCCCCC=CCCC[C@@](C)(C(=O)N[C@@H](CO)C(=O)N[C@@H](C)C(=O)N[C@@H](C)C(N)=O)NC(=O)[C@H](CC2CCC2)NC(=O)[C@H](CCC(N)=O)NC(=O)[C@H](C)NC(=O)[C@H](Cc2c[nH]c3ccccc23)NC(=O)[C@H](Cc2ccc(O)cc2)NC(=O)[C@H](CCC(=O)O)NC1=O)[C@@H](C)O [MP-7470]	228	2.72	–	< 4.30	90 (≈ 174 µg/mL)	> 10
